Test: Solubility of hydrocodone free base in methylene chloride (solvent of the reaction completion test)

Compound: COc1ccc2c3c1O[C@H]1C(=O)CC[C@H]4[C@@H](C2)N(C)CC[C@]314 [hydrocodone free base]
- soluble to the extent of (methylene chloride): 99.94%

From patent publication US20040157784A1, “Opiod tannate compositions” (Jame Fine Chemicals, Inc., priority 2003, published 2004)
